Entries after “also recorded” stand apart in the source; their conditions may differ.
How the values were obtained:
[1] = test system: SMN2 protein in fibroblast cells derived from SMA patients; details: after 64 hours of treatment; cited from earlier work
[2] = test system: cyclin D1 in MCF-7 breast cancer cells; details: cited from earlier work
Rat C6 glioma cells = test: Inhibition of cancer cell growth and change of morphology; format: cell-based; details: Rat C6 glioma cells
Method: (§1) Three cancer cell lines, Rat C6 giloma cells, Human breast cancer MCF-7 cells, and Human lung cancer A549 cells, were cultured in Dulbecco's modified Eagle's medium (DMEM; Gibco) containing 10% fetal bovine serum (FBS) and 1% penicillin/streptomycin. All three cell lines were maintained at 37° C. in a humidified atmosphere of 95% air and 5% CO2. For the experiments, the cells were seeded in 6-well plates. After 24 hours, the cells were treated with different concentrations of the various compounds.
(§2) Five cancer cell lines, Rat C6 giloma cells, Human breast cancer MCF-7 cells, Human glioma Hs683 cells, Human glioblastoma 05-MG cells, and Human lung cancer A549 cells, were cultured in Dulbecco's modified Eagle's medium (DMEM; Gibco) containing 10% fetal bovine serum (FBS) and 1% penicillin/streptomycin, and were kept at 37° C. in a humidified atmosphere of 95% air and 5% CO2. Human breast cancer. MDA-MB-231 cells were cultured in L-15 medium (Gibco) containing 10% fetal bovine serum (FBS), 1% penicillin/streptomycin, and 2 mM glutamine, and were maintained at 37° C. in a humidified atmosphere of 95% air and 0% CO2. For these experiments, the cells were seeded in 6-well plates or a 60-mm dish. After 24 hours, the cells were treated with different concentrations of the various compounds. […] Human glioblastoma 05-MG cells were treated with NBM-C-BCX-OS01 (1.0, 2.0, 4.0 μg/mL) and NBM-C-BMX-OS01 (1.0, 2.0, 4.0 μg/mL) for 72 hours (see FIG. 5(e)). […] The results were counted by a trypan blue exclusion assay (see FIG. 6(b)).

[3] = test system: Human lung cancer A549 cells; test: Inhibition of cancer cell growth; format: cell-based; details: 72 hrs, NBM-C-BX-OS01 7.5, others 2.5, 5.0, 7.5 μg/mL (FIG. 5(b))
Method: as §1, §2

Human glioma Hs683 cells [4] = test: Inhibition of cancer cell growth; format: cell-based; details: Hs683 cells, 1.25, 2.5, 5.0 μg/mL, 72 hrs (FIG. 5(d))
Method: Their results were counted by a trypan blue exclusion assay (see FIG. 8(e)).
as §2

[5] = test system: Human glioblastoma 05-MG cells; test: Inhibition of cancer cell growth; format: cell-based; details: 05-MG cells, 1.0, 2.0, 4.0 μg/mL, 72 hrs (FIG. 5(e))
Method: as §2

[6] = test system: human breast cancer MDA-MB-231 cells; test: Inhibition of cancer cell growth and change of morphology; format: cell-based; details: MDA-MB-231 cells
Method: Their results were counted by a trypan blue exclusion assay (see FIG. 9(f)).
as §2

Human glioma Hs683 cells [7] = test: Cell cycle analysis by flow cytometry (propidium iodide); format: cell-based; details: Hs683 cells, 1.0, 2.0, 4.0 μg/mL, 72 hrs (FIG. 6(e))
Method: Human lung cancer A549 cells, Human glioma Hs683 cells and Human glioblastoma 05-MG cells were seeded 1×10^6 cells in a 100-mm dish. After 24 hours of incubation in DMEM+10% BSA, Human lung cancer A549 cells were treated with NBM-HB-OS01 (2.5, 5.0, 7.5, 10.0 μg/mL) for 24 hours and were treated with NBM-C-BCX-OS01 (2.5, 5.0, 7.5 μg/mL) and NBM-C-BMX-OS01 (2.5, 5, 7.5 μg/mL) for 72 hours. Human glioblastoma 05-MG cells were treated with NBM-C-BCX-OS01 (1.0, 2.0, 4.0 μg/mL) and NBM-C-BMX-OS01 (1.0, 2.0, 4.0 μg/mL) for 72 hours. Human glioma Hs683 cells were treated with NBM-C-BCX-OS01 (1.0, 2.0, 4.0 μg/mL). For cell cycle analysis, cells were fixed in 80% ethanol for 1 hour (or overnight) at −20° C. and then incubated with 2 μg/mL RNase A for 30 minutes at 37° C. Cells were stained with propidium iodide ([…] PI) in PBS and analyzed using a Becton Dickinson flow cytometer, BD FACScan and CellQuest acquisition and analysis programs. […] Human glioma Hs683 cells were treated with NBM-C-BCX-OS01 (1.0, 2.0, 4.0 μg/mL) for 72 hours.

[8] = test system: acetyl-Histone H3, acetyl-Histone H4, acetyl-tubulin, p21, CTPS, Gelsolin, Hsp90, acetyl-Hsp90 in Human glioma Hs683 cells; test: Immunoblotting of histones and HDAC associated proteins; format: cell-based; details: Hs683 cells, 1.0, 2.0, 4.0 μg/mL
Method: Human glioma Hs683 cells were seeded at 5×10^5 cells in a 60-mm dish or 1×10^6 cells in a 100-mm dish. After 24 hours, Human glioma Hs683 cells were treated with different doses of NBM-C-BCX-OS01, NBM-C-BMX-OS01 (1.0, 2.0, 4.0 μg/mL), and vorinostat (SAHA, 5 μM) for 72 hours. Lysates of Hs683 cells were prepared for the immunoblotting of acetyl-Histone H3 (Cell Signaling Technology, Inc.), acetyl-Histone H4 (Upstate), acetyl-tubulin (Sigma Chemical Co.), p21 (BD Pharmingen Technology, Inc.), CTPS (ABNOVA TAIWAN Corporation), Gelsolin (Sigma Chemical Co.), Hsp90 (Cell Signaling Technology, Inc.), acetyl-Hsp90 (ROCKLAND, Inc.) and actin (Sigma Chemical Co.). Proteins were detected by chemiluminescence (ECL, Amersham). […] SAHA was used as a positive control and β-actin as an internal control (see FIG. 7(b)).

[9] = test system: transgenic mouse model of spinal and bulbar muscular atrophy; details: cited from earlier work

Structure (SMILES): CN(C)c1ccc(C(=O)NCCCCCCC(=O)NO)cc1 [M344]
- up-regulation of SMN2 protein expression [1]: up to 7 fold

Structure (SMILES): CC(/C=C/C(=O)NO)=C\[C@@H](C)C(=O)c1ccc(N(C)C)cc1 [Trichostatin A]
- ubiquitin-dependent cyclin D1 degradation [2]: induce ubiquitin-dependent cyclin D1 degradation

Structure (SMILES): COc1ccc(/C=C\C(=O)NO)c(OCc2ccc(Cl)cc2)c1CC=C(C)C [NBM-C-BCX-OS01, (Z)-2-(4-Chlorobenzoxy)-3-prenyl-4-methoxy-N-hydroxycinamide]
- inhibition of cell growth (Rat C6 glioma cells; 24 hrs, NBM-C-BA-OS01 5 μg/mL, others 2.5, 5.0 μg/mL (FIG. 5(a))): inhibited the cell growth
- inhibition of cell growth, similar to dose-dependent A549 result (Rat C6 glioma cells; various concentrations, 24 hrs (FIG. 5(c))): the results were similar
- cell growth inhibition [3]: induced A549 cells growth inhibition in a dose-dependent manner; also recorded: induced A549 cell growth inhibition in dose-dependent amounts
- cell growth inhibition (Human glioma Hs683 cells [4]): Cell growth inhibition was observed
- cell growth inhibition [5]: Cell growth inhibition was observed
- change of cell morphology ([6]; 72 hours (FIG. 6(a))): changed the morphology of the cells
- inhibition of cell growth ([6]; various concentrations, 72 hrs (FIG. 6(a))): inhibition of the cell growth of human breast cancer MDA-MB-231 cells was observed; also recorded: inhibited the growth
- growth arrest in cell cycle analysis (Human glioma Hs683 cells [7]): arrested the growth; also recorded: could arrest the growth
- CTPS protein level ([8]; 72 hrs (FIG. 7(a))): decreased in a dose-dependent manner
- Hsp90 protein level ([8]; 72 hrs (FIG. 7(a))): decreased in a dose-dependent manner
- induction (increase) of acetylated Hsp90 protein ([8]; 72 hrs (FIG. 7(a))): detected in a dose-dependent manner; also recorded: observed in a dose-dependent manner
- induction (increase) of gelsolin protein ([8]; 72 hrs (FIG. 7(a))): detected in a dose-dependent manner; also recorded: observed in a dose-dependent manner
- expression of acetylated Histone H3 ([8]; 72 hrs (FIG. 7(b))): significantly increased in a dose-dependent manner; also recorded: induced in a dose-dependent manner
- expression of acetylated Histone H4 ([8]; 72 hrs (FIG. 7(b))): significantly increased in a dose-dependent manner; also recorded: induced in a dose-dependent manner
- expression of acetylated tubulin ([8]; 72 hrs (FIG. 7(b))): significantly increased in a dose-dependent manner; also recorded: induced in a dose-dependent manner
- expression of p21 ([8]; 72 hrs (FIG. 7(b))): significantly increased in a dose-dependent manner; also recorded: induced in a dose-dependent manner

Structure (SMILES): CCCC(=O)[O-].[Na+] [sodium butyrate]
- effect on phenotypic expression [9]: ameliorates phenotypic expression
